Source: article PMC4365270 (Cancer Chemotherapy and Pharmacology, 2015)
“Also recorded” adds a separate entry of the source. Read-outs that look alike come from different tables or passages of the source.

Columns and labels:
[1] = dogs; cited from earlier work
[2] = set-up: method as in PMID 23813446; settings: rats; cited from earlier work
[3] = Plasma pharmacokinetics of DEBIO1143 in patients (LC-MS/MS); assay type: in vivo, human; settings: for AUC(0-t) / Cmax / Tmax / AUC(0-inf) / half-life: human, plasma
Protocol: Pharmacokinetic samples were taken from all patients on day 1 (predose, 0.5, 1, 2, 3, 4, 6, 8, 12, 18 h postdose) and on day 5 (predose, 0.5, 1, 2, 3, 4, 6, 8 h postdose) of the first cycle. In addition, for exploratory PD analysis of IAP inhibition and activation of apoptosis, optional skin and tumor biopsies were taken from consenting patients on days 1 (predose) and 5 and blood samples on day 1 (predose, 1, 3, 6, 8, 12 h postdose), day 2 (predose), and day 5 (3 h postdose).
C max and t max were determined by direct assessment of the observed concentration versus time curves. The area under the curve until the last quantifiable concentration (AUC0−t) was estimated by a linear up/log down method if ≥3 values were available and extrapolated to infinity (AUCinf), if the extrapolated part was <30 %. The terminal elimination half-life (T 1/2) was calculated as the ratio of loge^2 to the apparent terminal phase rate constant (λ z), determined through unweighted linear regression analysis on ≥3 log-transformed concentrations on the linear portion of the terminal slope, excluding the peak concentration. In general, points maximizing R ^2 up to at least 0.9 were included for linear regression.
For the detection of cIAP-1 in paraffin-embedded human tissue, a validated immunohistochemical (IHC) assay was used. […] Plasma biomarkers were measured through commercial ELISAs. All laboratory analyses were performed by MPI Research, Inc. (PK) and Mosaic Laboratory, LLC (PD).

[4] = oral, 80 mg, day 1, n=3, mean (SD)
[5] = oral, 80 mg, day 5, n=3, mean (SD)
[6] = oral, 120 mg, day 1, n=3, mean (SD)
[7] = oral, 120 mg, day 5, n=3, mean (SD)
[8] = oral, 180 mg, day 1, n=7, mean (SD)
[9] = oral, 180 mg, day 5, n=7, mean (SD)
[10] = oral, 260 mg, day 1, n=3, mean (SD)
[11] = oral, 260 mg, day 5, n=3, mean (SD)
[12] = oral, 400 mg, day 1, n=3, mean (SD)
[13] = oral, 400 mg, day 5, n=3, mean (SD)
[14] = oral, 600 mg, day 1, n=3, mean (SD)
[15] = oral, 600 mg, day 5, n=3, mean (SD)
[16] = oral, 900 mg, day 1, n=6, mean (SD)
[17] = oral, 900 mg, day 5, n=6, mean (SD)

Compound: CN[C@@H](C)C(=O)N[C@H]1CN(C(=O)CC(C)C)CC[C@H]2CC[C@@H](C(=O)NC(c3ccccc3)c3ccccc3)N2C1=O [DEBIO1143]
- No observable adverse event level (NOAEL) [1]: 1 mg/kg
- Oral bioavailability [2]: good
- Dose proportionality of C max and AUC ([3]; doses 80 to 900 mg): increased proportionally; also recorded: proportional to doses ≥80 mg
- Drug levels versus levels active in animal models ([3]; doses of ≥80 mg): exceeded levels that have demonstrated activity in animal models
- AUC(0-t) ([3]; oral, 5 mg, day 1, n=1): 19.6 ng·h/mL
- Cmax ([3]; oral, 5 mg, day 1, n=1): 6.69 ng/mL
- Tmax ([3]; oral, 5 mg, day 1, n=1, read-out: T max): 3 h
- AUC(0-t) ([3]; oral, 5 mg, day 5, n=1): 43.4 ng·h/mL
- Cmax ([3]; oral, 5 mg, day 5, n=1): 18.5 ng/mL
- Tmax ([3]; oral, 5 mg, day 5, n=1, read-out: T max): 1.6 h
- AUC(0-inf) ([3]; oral, 10 mg, day 1, n=1): 152 ng·h/mL
- AUC(0-t) ([3]; oral, 10 mg, day 1, n=1): 129 ng·h/mL
- Cmax ([3]; oral, 10 mg, day 1, n=1): 37.4 ng/mL
- half-life ([3]; oral, 10 mg, day 1, n=1, read-out: T 1/2 (converted)): 2.46 h
- Tmax ([3]; oral, 10 mg, day 1, n=1, read-out: T max): 1 h
- AUC(0-inf) ([3]; oral, 10 mg, day 5, n=1): 117 ng·h/mL
- AUC(0-t) ([3]; oral, 10 mg, day 5, n=1): 103 ng·h/mL
- Cmax ([3]; oral, 10 mg, day 5, n=1): 26.9 ng/mL
- half-life ([3]; oral, 10 mg, day 5, n=1, read-out: T 1/2 (converted)): 2.53 h
- Tmax ([3]; oral, 10 mg, day 5, n=1, read-out: T max): 3.5 h
- AUC(0-inf) ([3]; oral, 20 mg, day 1, n=1): 643 ng·h/mL
- AUC(0-t) ([3]; oral, 20 mg, day 1, n=1): 615 ng·h/mL
- Cmax ([3]; oral, 20 mg, day 1, n=1): 126 ng/mL
- half-life ([3]; oral, 20 mg, day 1, n=1, read-out: T 1/2 (converted)): 5.44 h
- Tmax ([3]; oral, 20 mg, day 1, n=1, read-out: T max): 1 h
- AUC(0-inf) ([3]; oral, 20 mg, day 5, n=1): 451 ng·h/mL
- AUC(0-t) ([3]; oral, 20 mg, day 5, n=1): 375 ng·h/mL
- Cmax ([3]; oral, 20 mg, day 5, n=1): 134 ng/mL
- half-life ([3]; oral, 20 mg, day 5, n=1, read-out: T 1/2 (converted)): 3.37 h
- Tmax ([3]; oral, 20 mg, day 5, n=1, read-out: T max): 0.5 h
- AUC(0-inf) ([3]; oral, 40 mg, day 1, n=1): 2300 ng·h/mL
- AUC(0-t) ([3]; oral, 40 mg, day 1, n=1): 2140 ng·h/mL
- Cmax ([3]; oral, 40 mg, day 1, n=1): 627 ng/mL
- half-life ([3]; oral, 40 mg, day 1, n=1, read-out: T 1/2 (converted)): 6.38 h
- Tmax ([3]; oral, 40 mg, day 1, n=1, read-out: T max): 1 h
- AUC(0-t) ([3]; oral, 40 mg, day 5, n=1): 1090 ng·h/mL
- Cmax ([3]; oral, 40 mg, day 5, n=1): 184 ng/mL
- Tmax ([3]; oral, 40 mg, day 5, n=1, read-out: T max): 6.1 h
- AUC(0-inf) [3, 4]: 6660 ng·h/mL
- AUC(0-t) [3, 4]: 6390 ng·h/mL
- Cmax [3, 4]: 1330 ng/mL
- half-life ([3]; oral, 80 mg, day 1, n=3, mean (SD), read-out: T 1/2 (converted)): 5.22 h
- Tmax ([3]; oral, 80 mg, day 1, n=3, median (min–max), read-out: T max): 2 h
- AUC(0-inf) [3, 5]: 5920 ng·h/mL
- AUC(0-t) [3, 5]: 5020 ng·h/mL
- Cmax [3, 5]: 1670 ng/mL
- half-life ([3]; oral, 80 mg, day 5, n=3, mean (SD), read-out: T 1/2 (converted)): 2.69 h
- Tmax ([3]; oral, 80 mg, day 5, n=3, median (min–max), read-out: T max): 2 h
- AUC(0-inf) [3, 6]: 7460 ng·h/mL
- AUC(0-t) [3, 6]: 6890 ng·h/mL
- Cmax [3, 6]: 1650 ng/mL
- half-life ([3]; oral, 120 mg, day 1, n=3, mean (SD), read-out: T 1/2 (converted)): 6.39 h
- Tmax ([3]; oral, 120 mg, day 1, n=3, median (min–max), read-out: T max): 1 h
- AUC(0-inf) [3, 7]: 6770 ng·h/mL
- AUC(0-t) [3, 7]: 5430 ng·h/mL
- Cmax [3, 7]: 1190 ng/mL
- half-life ([3]; oral, 120 mg, day 5, n=3, mean (SD), read-out: T 1/2 (converted)): 2.61 h
- Tmax ([3]; oral, 120 mg, day 5, n=3, median (min–max), read-out: T max): 2 h
- AUC(0-inf) [3, 8]: 11400 ng·h/mL
- AUC(0-t) [3, 8]: 10600 ng·h/mL
- Cmax [3, 8]: 2130 ng/mL
- half-life ([3]; oral, 180 mg, day 1, n=7, mean (SD), read-out: T 1/2 (converted)): 6.06 h
- Tmax ([3]; oral, 180 mg, day 1, n=7, median (min–max), read-out: T max): 2 h
- AUC(0-inf) [3, 9]: 9980 ng·h/mL
- AUC(0-t) [3, 9]: 7210 ng·h/mL
- Cmax [3, 9]: 2160 ng/mL
- half-life ([3]; oral, 180 mg, day 5, n=7, mean (SD), read-out: T 1/2 (converted)): 4.14 h
- Tmax ([3]; oral, 180 mg, day 5, n=7, median (min–max), read-out: T max): 2 h
- AUC(0-inf) [3, 10]: 17900 ng·h/mL
- AUC(0-t) [3, 10]: 16300 ng·h/mL
- Cmax [3, 10]: 2890 ng/mL
- half-life ([3]; oral, 260 mg, day 1, n=3, mean (SD), read-out: T 1/2 (converted)): 6.59 h
- Tmax ([3]; oral, 260 mg, day 1, n=3, median (min–max), read-out: T max): 3 h
- AUC(0-inf) [3, 11]: 11700 ng·h/mL
- AUC(0-t) [3, 11]: 10600 ng·h/mL
- Cmax [3, 11]: 2760 ng/mL
- half-life ([3]; oral, 260 mg, day 5, n=3, mean (SD), read-out: T 1/2 (converted)): 3.29 h
- Tmax ([3]; oral, 260 mg, day 5, n=3, median (min–max), read-out: T max): 2 h
- AUC(0-inf) [3, 12]: 27000 ng·h/mL
- AUC(0-t) [3, 12]: 25000 ng·h/mL
- Cmax [3, 12]: 5280 ng/mL
- half-life ([3]; oral, 400 mg, day 1, n=3, mean (SD), read-out: T 1/2 (converted)): 6.27 h
- Tmax ([3]; oral, 400 mg, day 1, n=3, median (min–max), read-out: T max): 1 h
- AUC(0-inf) [3, 13]: 26500 ng·h/mL
- AUC(0-t) [3, 13]: 20100 ng·h/mL
- Cmax [3, 13]: 5540 ng/mL
- half-life ([3]; oral, 400 mg, day 5, n=3, mean (SD), read-out: T 1/2 (converted)): 3.7 h
- Tmax ([3]; oral, 400 mg, day 5, n=3, median (min–max), read-out: T max): 0.5 h
- AUC(0-inf) [3, 14]: 28700 ng·h/mL
- AUC(0-t) [3, 14]: 27000 ng·h/mL
- Cmax [3, 14]: 5780 ng/mL
- half-life ([3]; oral, 600 mg, day 1, n=3, mean (SD), read-out: T 1/2 (converted)): 5.75 h
- Tmax ([3]; oral, 600 mg, day 1, n=3, median (min–max), read-out: T max): 1.1 h
- AUC(0-inf) [3, 15]: 25000 ng·h/mL
- AUC(0-t) [3, 15]: 20200 ng·h/mL
- Cmax [3, 15]: 7110 ng/mL
- half-life ([3]; oral, 600 mg, day 5, n=3, mean (SD), read-out: T 1/2 (converted)): 3.54 h
- Tmax ([3]; oral, 600 mg, day 5, n=3, median (min–max), read-out: T max): 1 h
- AUC(0-inf) [3, 16]: 61500 ng·h/mL
- AUC(0-t) [3, 16]: 56100 ng·h/mL
- Cmax [3, 16]: 10100 ng/mL
- half-life ([3]; oral, 900 mg, day 1, n=6, mean (SD), read-out: T 1/2 (converted)): 7.11 h
- Tmax ([3]; oral, 900 mg, day 1, n=6, median (min–max), read-out: T max): 1.5 h
- AUC(0-inf) [3, 17]: 47000 ng·h/mL
- AUC(0-t) [3, 17]: 36900 ng·h/mL
- Cmax [3, 17]: 10300 ng/mL
- half-life ([3]; oral, 900 mg, day 5, n=6, mean (SD), read-out: T 1/2 (converted)): 3.15 h
- Tmax ([3]; oral, 900 mg, day 5, n=6, median (min–max), read-out: T max): 1.5 h
- half-life ([3]; oral, all doses, read-out: Average T 1/2 (converted)): ~6 h
- Tmax ([3]; oral, all doses, read-out: Average t max): ~1 h
- half-life ([3]; oral, day 1, regardless of the dose, read-out: Mean T 1/2, range across doses): 5.2 to 7.1 h
- Tmax ([3]; po, after oral intake, read-out: Time to peak plasma concentrations): 1 to 3 h
